We go through one compound from publication PMC5859971 (Genes & Development, 2018).

“And” between values parts separate entries of the source, which are not always exact repeats. Identical values can stand only once. “Also recorded” adds a separate entry of the source.

Test [1] has as its target T1, PHF5A^Y36C mutant complex (Homo sapiens, UniProt O75533+Q7RTV0, Y36C).
T1 construct: SF3B1 was limited to the HEAT repeat domain from residues 454–1304 and cloned in-frame with an N-terminal Flag tag; Truncated SF3B1 and full-length SF3B3, PHF5A, and SF3B5 were synthesized; Flag (N); made in house; host or cells: SF21 insect cells (inferred to be made as the wild-type complex)
Description: MST compound binding to PHF5A^Y36C mutant complex. As to conditions: result in words. The protocol:
(§1) The four-protein complex composed of the HEAT repeats of SF3B1 (residues 454–1304) as well as full-length SF3B3, SF3B5, and PHF5A was coexpressed and purified from insect cells. This complex is necessary and sufficient for compound binding in a scintillation proximity assay (SPA) format ([Teng et al. 2017]).
(§2) The SF3b subcomplex was first titrated against a fixed concentration (25 nM) of fluorescent label (NTA-647) to determine the optimal concentrations of protein and label for the MST experiment. After 15 min of incubation at room temperature, samples were loaded into Monolith NT.115 capillaries, and MST analysis was performed using a Monolith NT.115Pico. […] For subsequent compound-binding experiments, the SF3b subcomplex bound to NTA-647 was fixed at 10 nM, and the compound was titrated from 50 µM to 3 pM. After 15 min of incubation, samples were loaded into capillaries, and analysis was performed as described previously.

For test [2], the system named is splicing of Ad2.1 pre-mRNA substrate. Description: In vitro splicing (IVS) assay, Ad2.1 substrate, HeLa S3 nuclear extracts, RT-qPCR. Format: biochemical, human. As to conditions: Ad2.1 (strong) substrate. From the text: (§3) A substrate competitive mechanism of action (MOA) would predict that weaker pre-mRNA substrates would be easier to inhibit than stronger substrates. To date, it has not been possible to evaluate substrate competition using traditional steady-state conditions because splicing reactions are thought to be single-turnover events in vitro, and therefore it is not possible to measure a KM for the pre-mRNA. […] Specifically, we engineered the strong in vitro splicing substrate Ad2.1 by enhancing the U2 snRNP base-pairing around the BPA found in the Ad2 substrate. We then engineered a weaker substrate, Ad2.2, by adding a decoy BPS lacking an extrahelical adenosine (Ad2.2) (Fig. 5A; Supplemental Vector NTI files; [Corrionero et al. 2011]). […] We then evaluated E7107 and several chemical probes to better understand their mechanism.
(§4) Figure 5. […] (A) Base-pairing logic for IVS substrates. (BPRS) Branch point recognition sequence in U2 snRNA; (BPS) the BPS in the pre-mRNA. The Ad2 gene BPS sequence (UACUUAU) was modified (UACUAAU) to strengthen the U2 base-pairing interactions flanking the BPA, leading to the Ad2.1 substrate (BPA in red). The Ad2.2 sequence has the same BPS as Ad2 but also contains a 5′ decoy BPS sequence (lacking an extrahelical adenine) that can base-pair with the BPRS. The decoy BPS and suboptimal BPS overlap, which gives U2 at least two possibilities for possible base pairing, as indicated. […] (B) RT-qPCR time-course data showing product formation over time. […] (C) Representative IC50 curves for compound 6 using the two different substrates (Ad2.1 and Ad2.2).
(§5) The Ad2-derived ([Pellizzoni et al. 1998]) sequence was cloned into the pGEM-3Z vector (Promega) using 5′ EcoRI and 3′ XbaI restriction sites. The Ad2 variant (Ad2.2) ([Seiler et al. 2018]) was cloned into pcDNA3.1(+) vector (Promega) using the same restriction sites. The plasmids were linearized using XbaI and used as DNA templates in the in vitro transcription reactions. The FtzΔi intron-less plasmid ([Luo and Reed 1999]) was linearized using EcoRI. All RNAs were in vitro transcribed and then purified using MegaScript T7 and MegaClear kits, respectively (Invitrogen). For splicing reactions used with the Ad2.2 substrate, […] reactions were prepared using 8 µg of nuclear extracts prepared from HeLa S3, a saturating excess of 2 ng of pre-mRNA substrate, 0.2 ng of FTZΔi, and varying concentrations of compounds or DMSO.
A general note: Quantitative PCR measures a nucleic acid by following its amplification.

Test [3] has as its system SF3B1^R1074H and PHF5A^Y36 mutations. As to conditions: strongest levels of resistance; ref Yokoi et al. 2011; Teng et al. 2017; cited from earlier work.
Test [4] has as its system splicing of Ad2.2 pre-mRNA substrate. Kind of test: In vitro splicing (IVS) assay, Ad2.2 substrate, HeLa S3 nuclear extracts, RT-qPCR. In kind it is biochemical, human.
Text: as §3, §4, §5

Test [5] has as its target T2, SF3b subcomplex (SF3B1 residues 454–1304, SF3B3, PHF5A, SF3B5) (Homo sapiens, UniProt O75533+Q7RTV0).
T2 construct: SF3B1 was limited to the HEAT repeat domain from residues 454–1304 and cloned in-frame with an N-terminal Flag tag; Truncated SF3B1 and full-length SF3B3, PHF5A, and SF3B5 were synthesized; made in house; host or cells: SF21 insect cells (baculovirus, pFastBac1)
Description: Microscale thermophoresis (MST) compound binding to SF3b subcomplex. As to conditions: SF3b subcomplex bound to NTA-647 fixed at 10 nM. Here is the method: as §1, §2
Binding of E7107 to SF3b 4-protein complex by MicroScale Thermophoresis (MST). The complex is
labeled with the fluorescent dye NTA-647 and kept constant at 10 nM. E7107 was titrated and a KD of
3.6 nM was determined for the interaction.
(1 picture or pasted object on this page, not shown here)
(In general: MST reads how a fluorescent partner responds to local heating, with and without ligand.)

T2 sequence (O75533 454-1304): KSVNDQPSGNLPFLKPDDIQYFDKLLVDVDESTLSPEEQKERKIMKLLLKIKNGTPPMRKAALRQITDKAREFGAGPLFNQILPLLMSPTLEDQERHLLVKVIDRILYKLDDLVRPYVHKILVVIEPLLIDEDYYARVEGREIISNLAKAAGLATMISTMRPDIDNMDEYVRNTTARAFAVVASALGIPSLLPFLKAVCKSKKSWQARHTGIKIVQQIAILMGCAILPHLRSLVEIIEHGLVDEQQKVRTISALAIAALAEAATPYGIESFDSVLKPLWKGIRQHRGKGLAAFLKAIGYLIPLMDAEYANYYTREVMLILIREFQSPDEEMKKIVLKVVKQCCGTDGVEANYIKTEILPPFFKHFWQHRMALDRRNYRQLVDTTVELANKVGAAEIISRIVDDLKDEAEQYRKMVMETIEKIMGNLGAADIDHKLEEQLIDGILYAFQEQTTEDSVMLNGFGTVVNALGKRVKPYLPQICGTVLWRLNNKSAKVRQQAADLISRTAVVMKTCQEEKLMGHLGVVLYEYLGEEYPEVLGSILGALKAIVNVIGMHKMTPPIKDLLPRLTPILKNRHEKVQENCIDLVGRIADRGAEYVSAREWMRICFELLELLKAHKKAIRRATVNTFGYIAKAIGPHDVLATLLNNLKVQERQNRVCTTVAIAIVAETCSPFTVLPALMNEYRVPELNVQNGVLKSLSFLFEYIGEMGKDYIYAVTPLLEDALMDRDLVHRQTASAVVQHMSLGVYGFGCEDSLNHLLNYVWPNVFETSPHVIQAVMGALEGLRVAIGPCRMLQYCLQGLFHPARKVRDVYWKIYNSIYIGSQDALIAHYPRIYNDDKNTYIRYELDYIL
T2 sequence (Q9BWJ5 whole entry, further chain, the tested form may be a part): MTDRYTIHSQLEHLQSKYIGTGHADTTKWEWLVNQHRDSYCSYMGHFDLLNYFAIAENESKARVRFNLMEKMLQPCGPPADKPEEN
T2 sequence (Q7RTV0 whole entry, the tested form may be a part): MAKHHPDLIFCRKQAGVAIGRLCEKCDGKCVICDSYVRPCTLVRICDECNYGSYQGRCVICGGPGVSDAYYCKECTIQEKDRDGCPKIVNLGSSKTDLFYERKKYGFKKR
T2 sequence (Q15393 whole entry, further chain, the tested form may be a part): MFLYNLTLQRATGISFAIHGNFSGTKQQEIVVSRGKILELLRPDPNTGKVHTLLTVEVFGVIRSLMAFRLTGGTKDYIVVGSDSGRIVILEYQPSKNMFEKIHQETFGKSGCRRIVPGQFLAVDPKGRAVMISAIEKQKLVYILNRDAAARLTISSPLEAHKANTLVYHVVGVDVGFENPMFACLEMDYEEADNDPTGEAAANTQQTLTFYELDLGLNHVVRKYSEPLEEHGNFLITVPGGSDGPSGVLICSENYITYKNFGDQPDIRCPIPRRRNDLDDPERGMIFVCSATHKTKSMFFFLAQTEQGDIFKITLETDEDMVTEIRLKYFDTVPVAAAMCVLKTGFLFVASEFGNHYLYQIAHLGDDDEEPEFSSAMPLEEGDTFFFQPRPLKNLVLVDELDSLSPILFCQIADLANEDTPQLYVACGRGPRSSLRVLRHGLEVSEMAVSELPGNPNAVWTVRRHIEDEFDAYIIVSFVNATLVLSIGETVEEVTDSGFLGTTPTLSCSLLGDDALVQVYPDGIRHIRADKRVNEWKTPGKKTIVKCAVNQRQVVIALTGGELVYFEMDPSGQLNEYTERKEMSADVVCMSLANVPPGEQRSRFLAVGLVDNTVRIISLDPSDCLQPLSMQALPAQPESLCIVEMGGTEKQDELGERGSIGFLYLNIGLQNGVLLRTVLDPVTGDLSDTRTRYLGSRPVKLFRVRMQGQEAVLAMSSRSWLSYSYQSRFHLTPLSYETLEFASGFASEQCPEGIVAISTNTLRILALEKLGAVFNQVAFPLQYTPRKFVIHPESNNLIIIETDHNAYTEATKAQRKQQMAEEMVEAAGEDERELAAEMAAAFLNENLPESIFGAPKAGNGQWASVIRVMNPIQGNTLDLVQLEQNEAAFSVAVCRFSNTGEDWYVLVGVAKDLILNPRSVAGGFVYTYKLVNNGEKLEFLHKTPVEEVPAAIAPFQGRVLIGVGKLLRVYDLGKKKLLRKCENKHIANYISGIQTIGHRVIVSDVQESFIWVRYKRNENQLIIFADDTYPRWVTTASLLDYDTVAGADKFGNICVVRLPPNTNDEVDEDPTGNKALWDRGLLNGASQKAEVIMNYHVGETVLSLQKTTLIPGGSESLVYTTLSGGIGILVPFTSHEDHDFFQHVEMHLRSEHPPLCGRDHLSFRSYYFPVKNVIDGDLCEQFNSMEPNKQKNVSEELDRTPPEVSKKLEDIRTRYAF
T1 sequence (Q15393 whole entry, the tested form may be a part): as the sequence (Q15393 whole entry, further chain, the tested form may be a part) above
T1 sequence (Q9BWJ5 whole entry, further chain, the tested form may be a part): as the sequence (Q9BWJ5 whole entry, further chain, the tested form may be a part) above
T1 sequence (O75533 454-1304): as the sequence (O75533 454-1304) above
T1 sequence (Q7RTV0 whole entry Y36C, the tested form may be a part): as the sequence (Q7RTV0 whole entry, the tested form may be a part) above, with Y36C counted along it

Take `CCC(O)C(C)C1OC1CC(C)(O)C=CC=C(C)C1OC(=O)CC(O)CCC(C)(O)C(OC(=O)N2CCN(C3CCCCCC3)CC2)C=CC1C` (stereo not drawn) [Compound E7107]: the “binding to PHF5A^Y36C mutant complex” value in test [1] is “no binding was detected; also recorded: not able to bind”. The values for the IC50 in test [2] and in test [4] (Ad2.2 (weak) substrate) were 9.1 nM and 9.9 nM, respectively. The “resistance conferred by SF3B1^R1074H and PHF5A^Y36C” value in test [3] was over 500 fold. In test [4] (Ad2.1 and Ad2.2 substrates compared), the “inhibition of strong and weak IVS substrates” value is “inhibit both the strong and weak substrates equally well”. Further, the dissociation constant (Kd) in test [5] was 3.6 nM and ~3.6 nM.

Usually IC50 stands for the point on the concentration scale where inhibition reaches its midpoint. A word on the Kd: it is the free concentration of one partner at which half of the binding sites on the other are occupied at equilibrium, for simple one-to-one binding.
